Here are results for 17 compounds from article PMC8744235 (Journal of Biomedical Science, 2022).

The structures appear in SMILES notation. Where “and” joins values, the source holds several entries; their conditions need not be identical. Equal entries are not always repeated. Structures can show the parent of a compound that is named as a salt. Where two headings read alike, the source gives them in different places.

The subject of data set [1] is colonic mucosa. Set-up: method as in PMID 32014250. To be noted: cited from earlier work.
Data set [2] has as its target SMCT1. To be noted: inhibition of uptake of SMCT1 substrate nicotinate, mouse colon cell lines; cited from earlier work.
For data set [3], the system named is [^3H]VPA uptake in WT (hSOD1^WT) NSC-34 cell line. Description: Inhibition of [3H]VPA uptake by substrates/inhibitors/drugs, WT cell line. The data set is classed as cell-based. To be noted: for [^3H]VPA uptake (% of control): 10 s, 37 °C.
The subject of data set [4] is [^3H]VPA uptake in MT (hSOD1^G93A) NSC-34 cell line. Conditions: for [^3H]VPA uptake (% of control): 10 s, 37 °C.
For data set [5] the test system is unchanged. Briefly: cells.
For data set [6], the system named is FRTL-5 cells. To be noted: inhibition of GHB uptake by FRTL-5 cells; cited from earlier work.
The test system of data set [7] is NSC-34 wild-type (NSC-34/hSOD1^WT) cell line. Description: [3H]VPA cellular uptake and kinetic parameters, WT cell line. In kind it is in vitro ADME. The text has this: (§1) To maintain the sodium-free environment in the ECF buffer, NaCl and NaHCO3 was replaced with […] and N-methyl-D-glucamine (NMG), respectively. […] Similarly, to observe the effect of pH, the ECF buffer was adjusted to pH 6.0-7.4 using HCl or NaOH following a previously described experimental procedure. […] For the Eadie-Hofstee plot, the saturable components were plotted by subtracting the non-saturable uptake from the total uptake rate.

For data set [8], the system named is NSC-34 mutant-type (NSC34/hSOD1^G93A) cell line. Briefly: [3H]VPA cellular uptake and kinetic parameters, MT ALS cell line. In kind it is in vitro ADME.
Text: as §1

For data set [9], the system named is NSC-34 WT cell line. Description: Cell viability (MTT) assay, glutamate- and H2O2-induced neurotoxicity, WT. Conditions: 24 h. As for the experimental part: (§2) Then, an MTT [3‐(4,5‐[…]‐2‐yl)‐2,5‐diphenyltetrazoliumbromide] solution (5 mg/mL) was added and the cells were stored in the dark at 37 °C until the appearance of a purple precipitate (formazan). Then, DMSO was added and the cells were left for 15 min; afterwards, the absorbance was measured using an Infinite F200 PRO microplate reader (Tecan Trading AG, Männedorf, Switzerland) at […]. Images were captured using an EVOS XL Core Cell Imaging System (Life technologies, Thermo Fisher Scientific Korea Co., Ltd.).

In data set [10] the test system is NSC-34 MT cell line. Briefly: Cell viability (MTT) assay, glutamate- and H2O2-induced neurotoxicity, MT. To be noted: 24 h. On the procedure: as §2
For data set [11] the following is noted: in the body; cited from earlier work.
Setting [12] is: NSC-34, pH 7.4, read-out: IC50 for [^3H]VPA uptake.
Where [13] appears, read: NSC-34, pH 6, read-out: IC50 for [^3H]VPA uptake.
Setting [14] is: 5–30 s, pH 6.0–7.4, sodium-free (NMG) buffer.
The mark [15] stands for this setting: high-affinity site, unlabeled VPA 0–10 mM, 10 s, pH 7.4, 37 °C.
Where [16] appears, read: low-affinity site, 10 s, pH 7.4.
Setting [17] is: VPA 2 mM added to glutamate (2 mM) and H2O2 (300 µM).

One may read the Km as the substrate concentration at which the rate is half of its maximum. Consider `Nc1ccc(O)c(C(=O)O)c1` [5-aminosalicylic acid], for which the Michaelis-Menten constant (Km) in [1] was 2400 µM. Moreover, the Ki/IC50 in data set [2] is given as 2.8 mM.
Turning to `CC(=O)O` [Acetic acid, acetic acid], the “[^3H]VPA uptake (% of control)” value is 54.9 ± 6.7 % of control in data set [3] (compound 1 mM, pH 6.0); 24.4 ± 3.0 % of control in data set [3] (compound 10 mM, pH 6.0); 40.3 ± 5.0 % of control in [4] (compound 1 mM, pH 6.0); 15.4 ± 1.4 % of control in data set [4] (compound 10 mM, pH 6.0).
Regarding `N#CC(=Cc1ccc(O)cc1)C(=O)O` [CHC, α-cyano-4-hydroxycinnamate], the “[^3H]VPA uptake (% of control)” value in data set [3] (compound 10 mM, pH 6.0) is reported as 67.7 ± 9.0 % of control; in [4] (compound 10 mM, pH 6.0), 74.6 ± 7.1 % of control.
With `O=C(O)CC(O)(CC(=O)O)C(=O)O` [Citric acid, citric acid], the “[^3H]VPA uptake (% of control)” value in data set [3] (compound 10 mM, pH 6.0) was 113 ± 3 % of control; in [4] (compound 10 mM, pH 6.0) it was 125 ± 13 % of control.
`O=S(=O)(O)c1cc(N=C=S)ccc1C=Cc1ccc(N=C=S)cc1S(=O)(=O)O` [DIDS, 4,4′-diisothiocyano-2,2′-stilbenedisulfonic acid]: the “depletion in VPA transport” value in data set [3] (1 mM) and in data set [4] (1 mM) was “approximately 40%” throughout. Besides, the “[^3H]VPA uptake (% of control)” value was 54.8 ± 4.3 % of control in data set [3] (compound 1 mM, pH 6.0) and 58.8 ± 4.9 % of control in [4] (compound 1 mM, pH 6.0).
By IC50 is commonly meant the concentration that inhibits the measured activity by half. Turning to `CC1=NN(c2ccccc2)C(=O)C1` [Edaravone, edaravone], the “[^3H]VPA uptake (% of control)” value in data set [3] (compound 1 mM, pH 6.0) is 80.3 ± 6.0 % of control; in data set [3] (compound 10 mM, pH 6.0), 67.3 ± 7.6 % of control; in data set [4] (compound 1 mM, pH 6.0), 81.0 ± 5.4 % of control; in data set [4] (compound 10 mM, pH 6.0), 68.6 ± 6.3 % of control. In data set [5] (setting [12]), the IC50 stood at 28.9 mM.
Consider `C[C@]12CC[C@@H]3c4ccc(OS(=O)(=O)O)cc4CC[C@H]3[C@@H]1CCC2=O` [Estrone − 3 sulfate, estrone 3-sulfate], for which the “[^3H]VPA uptake (% of control)” value in data set [3] (compound 10 mM, pH 6.0) is on record as 60.6 ± 8.4 % of control; in data set [4] (compound 10 mM, pH 6.0), 58.2 ± 8.5 % of control.
In the case of `NS(=O)(=O)c1cc(C(=O)O)c(NCc2ccco2)cc1Cl` [Furosemide, furosemide], the “[^3H]VPA uptake (% of control)” value is 61.7 ± 6.3 % of control in data set [3] (compound 1 mM, pH 6.0); 77.5 ± 4.9 % of control in data set [3] (compound 5 mM, acidic pH); 61.7 ± 2.2 % of control in data set [4] (compound 1 mM, pH 6.0); 82.3 ± 7.5 % of control in data set [4] (compound 5 mM, acidic pH).
`CC(C)Cc1ccc(C(C)C(=O)O)cc1` (centres unmarked) [Ibuprofen]: the “[^3H]VPA uptake (% of control)” value in data set [3] (compound 1 mM, pH 6.0) is 64.3 ± 3.6 % of control; in data set [3] (compound 10 mM, pH 6.0), 22.3 ± 1.5 % of control; in [4] (compound 1 mM, pH 6.0), 61.9 ± 7.5 % of control; in data set [4] (compound 10 mM, pH 6.0) it was 33.5 ± 1.0 % of control. Further, the half-maximal inhibitory concentration (IC50) in [5] (setting [13]) was 6.65 mM; in data set [5] (setting [12]) it was 36 mM; in data set [6], “in the micromolar range”.
With `C[C@H](O)C(=O)O` [L-lactate], the IC50 entry in data set [6] is “in the micromolar range”.
In the case of `Nc1ccc(C(=O)NCC(=O)O)cc1` [PAH, para-aminohippuric acid], the “[^3H]VPA uptake (% of control)” value in data set [3] (compound 1 mM, pH 6.0) is 71.0 ± 5.5 % of control; in [3] (compound 10 mM, pH 6.0) it was 75.8 ± 2.3 % of control; in data set [4] (compound 1 mM, pH 6.0), 58.7 ± 2.9 % of control; in [4] (compound 10 mM, pH 6.0) it was 63.5 ± 5.5 % of control.
With `O=C(O)CCCc1ccccc1` [PBA, 4-phenylbutyric acid], the “[^3H]VPA uptake (% of control)” value in data set [3] (compound 10 mM, pH 6.0) is reported as 43.1 ± 2.2 % of control; in data set [4] (compound 10 mM, pH 6.0) it was 56.6 ± 3.0 % of control.
As to `O=C(O)c1ccccc1O` [Salicylic acid], the “[^3H]VPA uptake (% of control)” value in data set [3] (compound 1 mM, pH 6.0) is given as 64.9 ± 2.0 % of control; in [3] (compound 10 mM, pH 6.0) it was 17.9 ± 1.5 % of control; in data set [4] (compound 1 mM, pH 6.0) it was 78.8 ± 8.6 % of control; in data set [4] (compound 10 mM, pH 6.0), 31.9 ± 1.6 % of control. Besides, the IC50 in data set [5] (setting [13]) came to 7.36 mM.
For orientation: half-life means the time in which the quantity being followed falls by half. Turning to `CCCC(CCC)C(=O)O` [VPA, Valproic acid], the “dependence of [^3H]VPA uptake” value is “time, pH, and sodium dependent” in data set [7] (setting [14]); “time, pH, and sodium dependent” in [8] (setting [14]). Further, the Vmax1 in data set [7] (high-affinity site, pH 7.4) is recorded as 0.0083 ± 0.0044 nmol/mg protein/10 s; in [8] (high-affinity site, pH 7.4) it was 0.0232 ± 0.0007 nmol/mg protein/10 s. Further, the Km1 in data set [7] (setting [15]) is 37.8 ± 3.0 µM; in [8] (setting [15]) it was 19.1 ± 0.7 µM. Further, the Km2 in data set [7] (setting [16]) was 4.59 ± 0.62 mM and 4.588 ± 0.620 mM; in data set [8] (setting [16]), 1.14 ± 0.14 mM and 1.144 ± 0.143 mM. Besides, the Vmax2 in data set [7] (low-affinity site, pH 7.4) was 1.86 ± 0.24 nmol/mg protein/10 s and 1.864 ± 0.244 nmol/mg protein/10 s; in [8] (low-affinity site, pH 7.4), 0.231 ± 0.015 nmol/mg protein/10 s. Besides, the “[^3H]VPA uptake (% of control)” value in [3] (compound 1 mM, pH 6.0) was 78.3 ± 4.5 % of control; in [3] (compound 10 mM, pH 6.0), 35.9 ± 5.2 % of control; in data set [4] (compound 1 mM, pH 6.0) it was 78.4 ± 1.6 % of control; in [4] (compound 10 mM, pH 6.0) it was 37.4 ± 4.2 % of control. The “neuroprotective effect on cell viability (MTT)” value in data set [9] (setting [17]) and in [10] (setting [17]) was “restored the viability” throughout. Also, in [11], the half-life is 9 to 16 h.
With `N[C@@H](CCC(=O)O)C(=O)O` [glutamate], the “effect of neurotoxic stimulus on cell viability (MTT)” value in [9] (glutamate 2 mM or H2O2 300 µM) and in data set [10] (glutamate 2 mM or H2O2 300 µM) was “significantly decreased the viability” throughout.
Regarding `CC(C(=O)O)c1cccc(C(=O)c2ccccc2)c1` (centres unmarked) [ketoprofen], the IC50 result in [6] is given as “in the micromolar range”.
As to `CCCN(CCC)S(=O)(=O)c1ccc(C(=O)O)cc1` [probenecid], the IC50 result in [6] was “in the micromolar range”.
